Assay results as given in patent publication US8784782B2 (Senomyx, Inc., priority 2005, dated 2014).
Like-named read-outs stand apart in the source and are kept apart here.

How the values were obtained:
[1] = biological target: T1, hT1R1/hT1R3 umami receptor expressed in an HEK293 cell line (Homo sapiens, UniProt Q7RTX0+Q7RTX1); experiment: In vitro hT1R1/hT1R3 umami taste receptor activation assay (FLIPR, dose response); assay type: cell-based
T1 construct: expressed in transfected cells; host or cells: HEK293 cell line derivative, hT1R1/hT1R3-HEK293-Gα15, clone I-17, mifepristone-induced
T1 sequence (Q7RTX1 21-841): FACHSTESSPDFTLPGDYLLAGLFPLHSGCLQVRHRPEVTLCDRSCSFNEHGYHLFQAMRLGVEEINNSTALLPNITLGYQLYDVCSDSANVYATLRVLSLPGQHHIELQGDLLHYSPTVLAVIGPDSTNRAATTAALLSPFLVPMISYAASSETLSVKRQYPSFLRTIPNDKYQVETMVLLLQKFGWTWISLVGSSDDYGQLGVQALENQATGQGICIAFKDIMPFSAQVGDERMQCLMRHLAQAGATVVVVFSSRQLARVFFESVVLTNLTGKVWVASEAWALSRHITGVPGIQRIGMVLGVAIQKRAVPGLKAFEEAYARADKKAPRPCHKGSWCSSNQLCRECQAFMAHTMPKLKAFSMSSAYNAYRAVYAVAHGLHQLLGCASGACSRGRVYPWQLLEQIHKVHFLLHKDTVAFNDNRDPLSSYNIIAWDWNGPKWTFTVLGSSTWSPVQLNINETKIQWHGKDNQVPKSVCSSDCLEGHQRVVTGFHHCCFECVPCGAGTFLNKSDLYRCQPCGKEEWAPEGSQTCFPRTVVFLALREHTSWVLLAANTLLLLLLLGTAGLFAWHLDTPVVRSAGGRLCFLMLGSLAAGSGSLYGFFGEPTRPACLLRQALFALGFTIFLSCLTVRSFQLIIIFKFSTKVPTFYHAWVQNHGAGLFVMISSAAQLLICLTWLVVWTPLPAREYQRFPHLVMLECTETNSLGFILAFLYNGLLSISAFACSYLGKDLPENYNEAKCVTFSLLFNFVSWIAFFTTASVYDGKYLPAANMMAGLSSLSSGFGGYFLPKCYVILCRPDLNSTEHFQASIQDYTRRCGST
T1 sequence (Q7RTX0 21-852): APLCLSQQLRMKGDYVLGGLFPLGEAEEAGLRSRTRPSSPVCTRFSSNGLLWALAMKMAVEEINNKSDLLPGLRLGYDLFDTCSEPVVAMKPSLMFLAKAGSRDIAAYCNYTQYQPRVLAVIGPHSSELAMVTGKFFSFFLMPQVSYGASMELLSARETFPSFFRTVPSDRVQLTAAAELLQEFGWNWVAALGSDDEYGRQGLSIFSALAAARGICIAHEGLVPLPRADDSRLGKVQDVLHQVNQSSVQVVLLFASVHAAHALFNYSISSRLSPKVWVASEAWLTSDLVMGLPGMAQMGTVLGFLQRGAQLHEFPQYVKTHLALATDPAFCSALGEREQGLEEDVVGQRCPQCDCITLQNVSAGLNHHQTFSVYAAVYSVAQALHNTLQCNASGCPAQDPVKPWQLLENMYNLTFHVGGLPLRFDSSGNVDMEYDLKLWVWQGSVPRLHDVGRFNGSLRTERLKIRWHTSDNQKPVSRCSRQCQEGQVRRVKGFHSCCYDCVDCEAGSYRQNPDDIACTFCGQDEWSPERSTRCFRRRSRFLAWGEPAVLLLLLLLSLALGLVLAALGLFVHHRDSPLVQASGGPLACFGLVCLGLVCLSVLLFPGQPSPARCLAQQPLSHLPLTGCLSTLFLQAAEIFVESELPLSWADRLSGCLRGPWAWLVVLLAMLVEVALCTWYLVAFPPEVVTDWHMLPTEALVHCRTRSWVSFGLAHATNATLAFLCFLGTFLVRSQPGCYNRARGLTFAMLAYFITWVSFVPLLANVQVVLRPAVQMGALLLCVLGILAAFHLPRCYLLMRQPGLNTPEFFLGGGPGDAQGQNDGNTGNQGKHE
Method: Activity was determined using an automated fluorometric imaging assay on a FLIPR instrument ([…], Molecular Devices, Sunnyvale, Calif.) (designated FLIPR assay). […] After replacement with 25 μl D-PBS, stimulation was performed in the FLIPR instrument and at room temperature by the addition of 25 μl D-PBS supplemented with different stimuli at concentrations corresponding to twice the desired final level. Receptor activity was quantified by determining the maximal fluorescence increases (using a 480 nm excitation and 535 nm emission) after normalization to basal fluorescence intensity measured before stimulation.
Activities were normalized to the response obtained with 60 mM monosodium glutamate, a concentration that elicits maximum receptor response.

[2] = biological target: T1, hT1R1/hT1R3 umami receptor expressed in an HEK293 cell line; experiment: Umami taste enhancement activity assay (EC50 ratio vs. MSG, FLIPR); assay type: cell-based; details: for Ec50 ratio (vs. MSG): Table A
Method: A series of measurements of the dose response is run in solutions comprising MSG alone, then a second dose response is run with MSG in combination with predetermined amounts of a candidate compound of Formula (I) at the same time.
Typical compound concentrations tested were 30 μM, 10 μM, 3 μM, 1 μM, 0.3 μM, 0.1 μM and 0.03 μM. The relative efficacy of compounds of Formula (I) at enhancing the receptor was determined by calculating the magnitude of a shift in the EC50 for monosodium glutamate. Enhancement was defined as a ratio (EC50R) corresponding to the EC50 of monosodium glutamate, determined in the absence of the test compound, divided by the EC50 of monosodium glutamate, determined in the presence of the test compound.
Stated alternatively, “EC50 ratio” as compared to MSG is calculated based on the following definitions: EC50 Ratio vs. MSG=EC50 (MSG)/EC50 (MSG+[Compound]) • wherein “[compound]” refers to the concentration of the compound of Formula (I) used to elicit (or enhance or potentiate) the MSG dose response.

[3] = tested on: un-induced I-17 cells; experiment: FLIPR assay on un-induced I-17 cells (receptor dependency control); assay type: cell-based; details: un-induced I-17 cells (no mifepristone)
Method: In order to determine the dependency of hT1R1/hT1R3 for the cell response to different stimuli, selected compounds were subjected to a similar analysis on I-17 cells that had not been induced for receptor expression with mifepristone (designated as un-induced I-17 cells). […] Compounds were presented to un-induced umami cells at […]—or three times the maximum stimulation used in the dose-response analysis.

[4] = read-out: EC50 for activation of a hT1R1/hT1R3 umami receptor expressed in an HEK293 cell line
[5] = Table A, triazoles, read-out: Umami EC50

SMILES | EC50 [1, 5] [µM] | Ec50 ratio (vs. MSG) ([2]; @ 0.3 μM compound) | also measured
Cc1ccc(-c2nc(SCc3ccccn3)n[nH]2)c(C)c1 [Example 3, 2-((5-(2,4-dimethylphenyl)-1H-1,2,4-triazol-3-ylthio)methyl)pyridine] |  |  | EC50 [1, 4]: 0.09 µM; EC50 ratio (enhanced the effectiveness of monosodium glutamate) ([2]; compound present at 0.01 μM): 4.3; melting point: 112 to 114 °C
COc1ccc(Cc2nc(SCc3ccccn3)n[nH]2)c(OC)c1 [Example 9, 2-((5-(2,4-dimethoxybenzyl)-1H-1,2,4-triazol-3-ylthio)methyl)pyridine] |  |  | EC50 [1, 4]: 1.2 µM; EC50 ratio (enhanced the effectiveness of monosodium glutamate) ([2]; compound present at 0.1 μM): 2.66
CCc1ccc(-c2nc(SCc3ccccn3)n[nH]2)cc1 [Example 4, 2-((5-(4-Ethylphenyl)-1H-1,2,4-triazol-3-ylthio)methyl)pyridine] |  |  | EC50 [1, 4]: 0.14 µM; EC50 ratio (enhanced the effectiveness of monosodium glutamate) ([2]; compound present at 0.03 μM): 4.4
c1ccc(CSc2n[nH]c(-c3cc4ccccc4o3)n2)nc1 [Example 6] |  |  | EC50 [1, 4]: 2.58 µM; EC50 ratio (enhanced the effectiveness of monosodium glutamate) ([2]; compound present at 0.1 μM): 2.88
N[C@@H](CCC(=O)O)C(=O)[O-].[Na+] [monosodium glutamate] |  |  | functional response in the FLIPR assay [3]: do not show any functional response
Cc1cc(-c2nc(SCc3ccccn3)n[nH]2)c(C)o1 [Example 7, 2-((5-(2,5-dimethylfuran-3-yl)-1H-1,2,4-triazol-3-ylthio)methyl)pyridine] |  |  | EC50 [1, 4]: 2.07 µM; EC50 ratio (enhanced the effectiveness of monosodium glutamate) ([2]; compound present at 0.1 μM): 2.1

More lines, main results first:

EC50 [1, 5] [µM] | Ec50 ratio (vs. MSG) ([2]; @ 0.3 μM compound) | SMILES | also measured
1.18 | 6.01 | c1ccc(CSc2nc(-c3ccc4c(c3)OCO4)n[nH]2)nc1 [Example A10, 2-((5-(benzo[d][1,3]dioxol-5-yl)-2H-1,2,4-triazol-3-ylthio)methyl)pyridine] | 
1.86 |  | Cc1ccccc1-c1n[nH]c(SCc2ccccn2)n1 [Example A12, 2-((5-o-tolyl-2H-1,2,4-triazol-3-ylthio)methyl)pyridine] | Ec50 ratio (vs. MSG) ([2]; @ 0.1 μM compound): 1.97
0.18 |  | COc1cccc(-c2n[nH]c(SCc3ccccn3)n2)c1OC [Example A2, 2-((5-(2,3-dimethoxyphenyl)-2H-1,2,4-triazol-3-ylthio)methyl)pyridine] | Ec50 ratio (vs. MSG) ([2]; @ 0.01 μM compound): 1.9
2.54 |  | Clc1cccc(-c2n[nH]c(SCc3ccccn3)n2)c1 [Example A15, 2-((5-(3-chlorophenyl)-2H-1,2,4-triazol-3-ylthio)methyl)pyridine] | Ec50 ratio (vs. MSG) ([2]; @ 0.1 μM compound): 2
0.24 | 2.01 | COc1ccc(-c2n[nH]c(SCc3ccccn3)n2)c(C)c1 [Example A3, 2-((5-(4-methoxy-2-methylphenyl)-2H-1,2,4-triazol-3-ylthio)methyl)pyridine] | 
0.37 |  | COc1ccc(-c2n[nH]c(SCc3ccccn3)n2)c(OC)c1 [Example A4, 2-((5-(2,4-dimethoxyphenyl)-2H-1,2,4-triazol-3-ylthio)methyl)pyridine] | Ec50 ratio (vs. MSG) ([2]; @ 0.1 μM compound): 6.22
7.37 | 4.84 | COc1cc(OC)cc(-c2n[nH]c(SCCc3ccccn3)n2)c1 [Example A20, 2-(2-(5-(3,5-dimethoxyphenyl)-2H-1,2,4-triazol-3-ylthio)ethyl)pyridine] | 
0.17 |  | Cc1ccc(-c2n[nH]c(SCc3ccccn3)n2)cc1 [Example A1, 2-((5-p-tolyl-2H-1,2,4-triazol-3-ylthio)methyl)pyridine] | Ec50 ratio (vs. MSG) ([2]; @ 0.01 μM compound): 2.19
6.49 | 2.01 | CCOc1ccccc1-c1n[nH]c(SCc2ccccn2)n1 [Example A19, 2-((5-(2-ethoxyphenyl)-2H-1,2,4-triazol-3-ylthio)methyl)pyridine] | 
2.89 | 3.02 | c1ccc(-c2n[nH]c(SCc3ccccn3)n2)cc1 [Example A17, 2-((5-phenyl-2H-1,2,4-triazol-3-ylthio)methyl)pyridine] | 
0.42 |  | CC(C)c1ccc(-c2n[nH]c(SCc3ccccn3)n2)cc1 [Example A5, 2-((5-(4-isopropylphenyl)-2H-1,2,4-triazol-3-ylthio)methyl)pyridine] | Ec50 ratio (vs. MSG) ([2]; @ 0.03 μM compound): 1.5
2.12 | 7.36 | COc1ccccc1-c1n[nH]c(SCc2ccccn2)n1 [Example A13, 2-((5-(2-methoxyphenyl)-2H-1,2,4-triazol-3-ylthio)methyl)pyridine] | 
2.58 | 3.16 | COc1cc(OC)cc(-c2n[nH]c(SCc3ccccn3)n2)c1 [Example A16, 2-((5-(3,5-dimethoxyphenyl)-2H-1,2,4-triazol-3-ylthio)methyl)pyridine] | 
0.74 |  | CCOc1ccc(-c2n[nH]c(SCc3ccccn3)n2)cc1 [Example A7, 2-((5-(4-ethoxyphenyl)-2H-1,2,4-triazol-3-ylthio)methyl)pyridine] | Ec50 ratio (vs. MSG) ([2]; @ 0.03 μM compound): 2.33
